Data on 2 substances can be found in article PMC4735555, “Crystal structure of the N-myristoylated lipopeptide-bound MHC class I complex” (Nature Communications, 2016).

One assay relates to 2N5.1 TCR. As to the kind of experiment: SPR binding of soluble 2N5.1 TCR to peptide-loaded Mamu-A*02. Also noted: species or system rhesus macaque. The following applies: in words; Biacore 3000, 30 °C; soluble 2N5.1 TCR αβ dimer; YY9 peptide-loaded Mamu-A*02 immobilized; pH 7.5. An excerpt: (§1) Single-chain MHC proteins in which β2m was linked via a Gly-Ser linker (GGGGSGGSGSGGGSS) to the ectodomain of either Mamu-B*098 or Mamu-A*02, followed by a biotinylation sequence peptide (LHHILDAQKMVWNHR), were also expressed in E. coli and were purified in a similar manner to the trimer complex of Mamu-B*098, β2m and C14nef5. The β2m-linked Mamu-B*098 protein was refolded without C14nef5, whereas the β2m-linked Mamu-A*02 protein was refolded in the presence of the YY9 peptide (YTSGPGIRY). These recombinant proteins (3 mg) were biotinylated by being incubated for 12 h at 20 °C with 2 μg of BirA enzyme (Sigma-Aldrich, St Louis, MO) in a biotinylation buffer containing 100 mM Tris-HCl pH 8.0, 5 mM MgCl2, 4.5 mM ATP and 4 mM D-biotin, and were purified by size-exclusion chromatography.
TCR dimers were generated by the disulfide-linked TCR method. […]
The binding of ligands to MHC class I molecules was analysed using the Octet RED96 system equipped with a streptavidin-conjugated biosensor (Pall ForteBio, Menlo Park, CA) according to the manufacturer's instructions. […] After reference subtraction, binding signals were analysed using the BIAevaluation 3.1 software. […]
On the technique in general: Surface plasmon resonance follows binding to a sensor surface in real time, without labels.

A further assay relates to Mamu-B*098. Put plainly: Biolayer interferometry binding to β2m-linked Mamu-B*098. Also noted: species or system rhesus macaque. As to conditions: Octet RED96; biotinylated β2m-linked Mamu-B*098; lipopeptide 10 μM, 45 min, then 30 min without; 20 mM Tris-HCl pH 7.5, 150 mM NaCl, 2% DMSO; 30 °C; representative of three independent experiments.
Excerpt: as §1
The binding of ligands to MHC class I molecules was analysed using the Octet RED96 system equipped with a streptavidin-conjugated biosensor (Pall ForteBio, Menlo Park, CA) according to the manufacturer's instructions. Biotinylated β2m-linked Mamu-B*098 and Mamu-A*02 proteins were immobilized on the sensor tip surface with a signal magnitude of ∼5.0 nm. […] After reference subtraction, binding signals were analysed using the BIAevaluation 3.1 software. […]
Background: In BLI a coated tip is dipped into the sample, and binding shifts an interference pattern.

Assay [1] deals with 2N5.1 (plate-coated Mamu-B*098). As to the kind of experiment: T-cell assay with plate-coated Mamu-B*098, IFN-γ release by 2N5.1. The following applies: 10 μg MHC protein, 1 μg lipopeptide loaded overnight 37 °C; 5 × 10^4 T cells per well, 24 h; IFN-γ ELISA. Type of assay: cell-based, rhesus macaque.
Excerpt: as §1
Streptavidin-coated 96-well plates (Thermo Scientific, Hudson, NH) were overlaid with 10 μg of the biotinylated β2m-linked Mamu-B*098 and Mamu-A*02 proteins, and lipopeptide Ags (1 μg) were loaded by an overnight incubation at 37 °C. The wells were then washed extensively and T cells (5 × 10^4 per well) were added. After a 24-h incubation at 37 °C, aliquots of the culture supernatants were collected and the amount of IFN-γ released into the medium was measured by a human/monkey IFN-γ enzyme-linked immunosorbent assay kit (Mabtech, Nacka Strand, Sweden).
In general terms: ELISA stands for enzyme-linked immunosorbent assay.

For YTSGPGIRY [YY9, YY9 peptide (…)], the “interaction of 2N5.1 TCR with peptide-loaded Mamu-A*02 (SPR)” value with 2N5.1 TCR was “no interaction was detected”. Take C14-GGAAS: in the assay on Mamu-B*098, the “physical interaction with immobilized Mamu-B*098 (biolayer interferometry)” value was “bound to B*098”. Moreover, the “IFN-γ response of 2N5.1 to plate-coated Mamu-B*098 with lipopeptide Ag” value in assay [1] was “failed to stimulate 2N5.1 even in the presence of Mamu-B*098”.
